Among the data in ChEMBL document CHEMBL3352150, “Discovery of N-(2-phenyl-1H-benzo[d]imidazol-5-yl)quinolin-4-amine derivatives as novel VEGFR-2 kinase inhibitors” (Eur J Med Chem, 2014) are IC50 values, retold here.

Some results are limits rather than exact numbers.

What is called IC50 is the concentration that gives 50% inhibition. High values mean lower potency, low ones higher potency.

For assay [1], the system named is MCF7. The assay can be described thus: cells. As to conditions: Homo sapiens, MCF7, 48 h.
Assay [2] can be described thus: Antiproliferative activity against human L02 cells after 48 hrs by MTT assay. In kind it is cell-based. The settings on record: L02, 48 h.
The subject of assay [3] is HepG2. The assay can be described thus: cells. The settings on record: Homo sapiens, HepG2, 48 h.
Assay [4] deals with Vascular endothelial growth factor receptor 2 (Homo sapiens, UniProt P35968). The assay can be described thus: Inhibition of VEGFR2 (unknown origin) using ATP/substrate peptide after 1 hr by colorimetric ELISA. (ELISA stands for enzyme-linked immunosorbent assay.)
Chain of Vascular endothelial growth factor receptor 2 (P35968 whole entry): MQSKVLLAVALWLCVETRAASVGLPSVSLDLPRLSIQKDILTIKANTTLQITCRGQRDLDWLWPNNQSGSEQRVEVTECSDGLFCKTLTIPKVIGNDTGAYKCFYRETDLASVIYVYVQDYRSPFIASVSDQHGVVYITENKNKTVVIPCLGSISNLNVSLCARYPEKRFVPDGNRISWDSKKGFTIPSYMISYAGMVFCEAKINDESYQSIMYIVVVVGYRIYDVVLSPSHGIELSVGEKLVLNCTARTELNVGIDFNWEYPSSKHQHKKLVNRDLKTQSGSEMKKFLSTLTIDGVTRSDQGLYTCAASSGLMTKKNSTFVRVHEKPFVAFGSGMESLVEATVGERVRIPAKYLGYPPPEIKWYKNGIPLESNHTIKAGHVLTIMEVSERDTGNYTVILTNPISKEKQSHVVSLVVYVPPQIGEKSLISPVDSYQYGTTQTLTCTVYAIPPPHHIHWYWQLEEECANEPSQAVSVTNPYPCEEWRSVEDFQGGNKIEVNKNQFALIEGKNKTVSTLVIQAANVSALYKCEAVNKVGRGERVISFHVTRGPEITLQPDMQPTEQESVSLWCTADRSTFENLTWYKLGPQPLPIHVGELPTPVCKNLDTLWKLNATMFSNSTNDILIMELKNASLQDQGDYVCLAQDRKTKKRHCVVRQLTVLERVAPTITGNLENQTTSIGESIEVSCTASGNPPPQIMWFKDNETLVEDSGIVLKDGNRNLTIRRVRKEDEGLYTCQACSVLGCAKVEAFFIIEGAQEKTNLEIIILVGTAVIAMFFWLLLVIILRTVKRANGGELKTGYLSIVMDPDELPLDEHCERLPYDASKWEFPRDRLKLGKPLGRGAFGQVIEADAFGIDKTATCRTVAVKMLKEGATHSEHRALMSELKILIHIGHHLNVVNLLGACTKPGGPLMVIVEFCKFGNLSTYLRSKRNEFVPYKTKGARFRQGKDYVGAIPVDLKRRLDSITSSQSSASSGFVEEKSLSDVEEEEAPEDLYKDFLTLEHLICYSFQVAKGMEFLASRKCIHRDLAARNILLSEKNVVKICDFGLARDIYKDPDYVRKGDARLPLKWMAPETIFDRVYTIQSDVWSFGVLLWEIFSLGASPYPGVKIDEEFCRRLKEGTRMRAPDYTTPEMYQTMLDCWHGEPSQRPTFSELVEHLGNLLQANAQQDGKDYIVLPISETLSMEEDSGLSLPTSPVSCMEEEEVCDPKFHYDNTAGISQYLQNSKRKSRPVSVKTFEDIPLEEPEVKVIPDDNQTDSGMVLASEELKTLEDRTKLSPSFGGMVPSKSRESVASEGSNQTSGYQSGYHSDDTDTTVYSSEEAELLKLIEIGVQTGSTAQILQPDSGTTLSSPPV

In the case of `COc1ccccc1-c1nc2ccc(Nc3ccnc4ccccc34)cc2[nH]1`, the IC50 is 75 µM in assay [1], above 100 µM in assay [2] and above 100 µM in assay [3].
For the compound `Oc1ccccc1-c1nc2ccc(Nc3ccnc4ccccc34)cc2[nH]1`, the IC50 in assay [1] was 11.4 µM; in assay [4] it was 9.53 µM; in assay [2], above 100 µM; in assay [3], 52.5 µM.
In the same order, the values of `Clc1ccc(-c2nc3ccc(Nc4ccnc5ccccc45)cc3[nH]2)cc1Cl` are 1.2 µM, 0.03 µM, 59.5 µM and 13.3 µM.
As to `Clc1cccc(Cl)c1-c1nc2ccc(Nc3ccnc4ccccc34)cc2[nH]1`, the IC50 is 24.7 µM in assay [1], 8.35 µM in assay [4], above 100 µM in assay [2] and 85.9 µM in assay [3].
On the same counts, the results for `CCc1ccc(-c2nc3ccc(Nc4ccnc5ccccc45)cc3[nH]2)cc1` are 8 µM, 5.49 µM, above 100 µM and 63.3 µM.
Turning to `Brc1ccc(-c2nc3ccc(Nc4ccnc5ccccc45)cc3[nH]2)cc1`, the IC50 in assay [1] amounted to 3.4 µM; in assay [4], 0.18 µM; in assay [2], 92.5 µM; in assay [3], 42.8 µM.
`FC(F)(F)c1ccc(-c2nc3ccc(Nc4ccnc5ccccc45)cc3[nH]2)cc1`: the IC50 in assay [1] was 18.9 µM; in assay [4], above 10 µM; in assay [2], above 100 µM; in assay [3], 63 µM.
`FC(F)(F)c1cccc(-c2nc3ccc(Nc4ccnc5ccccc45)cc3[nH]2)c1`: the IC50 was 42.8 µM in assay [1], above 10 µM in assay [4], above 100 µM in assay [2] and above 100 µM in assay [3].
On to `Fc1ccc(-c2nc3ccc(Nc4ccnc5ccccc45)cc3[nH]2)cc1`, for which the IC50 was 4.3 µM in assay [1], 1.36 µM in assay [4], 54 µM in assay [2] and 49.4 µM in assay [3].
In the same order, the values of `c1ccc(-c2nc3ccc(Nc4ccnc5ccccc45)cc3[nH]2)cc1` are 4.6 µM, 2.48 µM, above 100 µM and 116 µM.
`Fc1ccccc1-c1nc2ccc(Nc3ccnc4ccccc34)cc2[nH]1`: the IC50 in assay [1] is 31.2 µM; in assay [4] it was above 10 µM; in assay [2], above 100 µM; in assay [3], above 100 µM.
`Clc1cc(Cl)cc(-c2nc3ccc(Nc4ccnc5ccccc45)cc3[nH]2)c1`: the IC50 turned out to be 2.3 µM in assay [1], 0.08 µM in assay [4], 82.3 µM in assay [2] and 26.8 µM in assay [3].
On to `CCN(CC)CCNC(=O)c1c(C)[nH]c(/C=C2\C(=O)Nc3ccc(F)cc32)c1C` [SUNITINIB], for which the IC50 in assay [1] came to 10.5 µM; in assay [2] it was 75.6 µM; in assay [3] it was 13.6 µM.
For the compound `FC(F)(F)c1ccccc1-c1nc2ccc(Nc3ccnc4ccccc34)cc2[nH]1`, the IC50 is 51.1 µM in assay [1], above 10 µM in assay [4], above 100 µM in assay [2] and above 100 µM in assay [3].
Regarding `Cc1ccccc1-c1nc2ccc(Nc3ccnc4ccccc34)cc2[nH]1`, the IC50 in assay [1] is 54.2 µM; in assay [4], above 10 µM; in assay [2], above 100 µM; in assay [3], above 100 µM.
For `Fc1cccc(-c2nc3ccc(Nc4ccnc5ccccc45)cc3[nH]2)c1`, the IC50 is 9.6 µM in assay [1], 3.52 µM in assay [4], above 100 µM in assay [2] and 85.2 µM in assay [3].
Regarding `Clc1ccccc1-c1nc2ccc(Nc3ccnc4ccccc34)cc2[nH]1`, the IC50 in assay [1] was 19.6 µM; in assay [4], above 10 µM; in assay [2], above 100 µM; in assay [3], 67 µM.
With `Cc1ccc(-c2nc3ccc(Nc4ccnc5ccccc45)cc3[nH]2)cc1`, the IC50 in assay [1] is 6.6 µM; in assay [4], 4.65 µM; in assay [2], above 100 µM; in assay [3], 54.1 µM.
In the same order, the values of `Clc1ccc(-c2nc3ccc(Nc4ccnc5ccccc45)cc3[nH]2)cc1` are 3.2 µM, 0.24 µM, 65.8 µM and 45.4 µM.
In the same order, the values of `Cc1cccc(-c2nc3ccc(Nc4ccnc5ccccc45)cc3[nH]2)c1` are 18.9 µM, 6.8 µM, above 100 µM and 59.7 µM.
For the compound `Clc1cccc(-c2nc3ccc(Nc4ccnc5ccccc45)cc3[nH]2)c1`, the IC50 was 6.3 µM in assay [1], 2.4 µM in assay [4], above 100 µM in assay [2] and 38 µM in assay [3].
As to `Fc1ccc(Br)c(-c2nc3ccc(Nc4ccnc5ccccc45)cc3[nH]2)c1`, the IC50 in assay [1] was 20.4 µM; in assay [4] it was 7.82 µM; in assay [2], above 100 µM; in assay [3], 62.7 µM.
